For 34 molecules, melting point results are on record in patent US7060822B1, “2-pyrazolin-5-ones” (Abbott GmbH & Co. KG, priority 1999, dated 2006).

Where only a bound is given, the exact number is not on record here.

Usually melting point stands for the temperature of the solid-liquid transition. `Cc1[nH]c(C=C2C(=O)NN=C2c2cnccn2)c(C)c1C(=O)CN(C)C.Cl`: the melting point is > 300 °C (dec.).

As for `O=C1NN=C(c2cccnc2)C1=Cc1c[nH]c2ccccc12`, the melting point was 305 to 307 °C.

Take `O=C1NN=C(c2cccnc2)C1=Cc1cc2ccccc2[nH]1`: the melting point was 155 to 157 °C.

In the case of `O=C1NN=C(c2cccnc2)C1=Cc1c[nH]c2ncccc12`, the melting point lay within 212 to 215 °C.

As to `Cc1cc(C)c(C=C2C(=O)NN=C2c2cccnc2)[nH]1`, the melting point fell in the range of 235 to 238 °C.

Molecule `Cc1ccc(C=C2C(=O)NN=C2c2cccnc2)[nH]1` showed a melting point of 210 to 212 °C.

`O=C1NN=C([C@@H]2C[C@H]2c2ccccc2)C1=Cc1ccc[nH]1` (relative stereo) [Example 106, 3-(trans-2-phenylcyclopropyl)-4-[(pyrrol-2-yl)methylene]-2-pyrazolin-5-one] came in with a melting point of 173 to 175 °C.

For the molecule `O=C1NN=C([C@@H]2C[C@H]2c2ccccc2)C1=Cc1c[nH]c2ccccc12` (relative stereo) [Example 285, 4-[(Indol-3-yl)methylene]-3-(trans-2-phenyl-1-cyclopropyl)-2-pyrazolin-5-one], the melting point was 280 to 282 °C.

With `Cc1cc(C=C2C(=O)NN=C2C2CC2)[nH]c1C` [Example 1, 3-Cyclopropyl-4-[(4,5-dimethylpyrrol-2-yl)methylene]-2-pyrazolin-5-one], the melting point was in the range of 220 to 222 °C.

`O=C1NN=C(Cc2ccccc2)C1=Cc1ccc[nH]1` [Example 2, 3-Benzyl-4-[(pyrrol-2-yl)methylene]-2-pyrazolin-5-one] yielded a melting point of 182 to 184 °C.

In turn, `COc1ccc(OCC2=NNC(=O)C2=Cc2ccc[nH]2)cc1` [Example 3, 3-(4-Methoxyphenyloxymethyl)-4-[(pyrrol-2-yl)methylene]-2-pyrazolin-5-one] registered a melting point of 177 to 180 °C.

For `O=C1NN=C(COc2ccccc2)C1=Cc1ccc[nH]1` [Example 4, 3-Phenyloxymethyl-4-[(pyrrol-2-yl)methylene]-2-pyrazolin-5-one], the melting point was in the range of 163 to 165 °C.

With `O=C1NN=C(COc2ccc(Cl)cc2)C1=Cc1ccc[nH]1` [Example 5, 3-(4-Chlorophenyloxymethyl)-4-[(pyrrol-2-yl)methylene]-2-pyrazolin-5-one], the melting point was 218 to 222 °C.

In turn, `COc1ccc(CC2=NNC(=O)C2=Cc2ccc[nH]2)cc1` [Example 6, 3-(4-Methoxybenzyl)-4-[(pyrrol-2-yl)methylene]-2-pyrazolin-5-one] yielded a melting point of 179 to 180 °C.

As to `Cc1c(CCC(=O)O)c[nH]c1C=C1C(=O)NN=C1Cc1ccccc1` [Example 7, 3-Benzyl-4-{[4-(2-carboxyethyl)-3-methylpyrrol-2-yl]methylene}-2-pyrazolin-5-one], the melting point was 270 to 272 °C.

Molecule `Cc1c[nH]c(C=C2C(=O)NN=C2Cc2ccccc2)c1CCC(=O)O` [Example 8, 3-Benzyl-4-{[3-(2-carboxyethyl)-4-methylpyrrol-2-yl]methylene}-2-pyrazolin-5-one] came in with a melting point of 226 to 228 °C.

Turning to `Cc1ccc(OCC2=NNC(=O)C2=Cc2ccc[nH]2)cc1` [Example 9, 3-(4-Methylphenyloxymethyl)-4-[(pyrrol-2-yl)methylene]-2-pyrazolin-5-one], the melting point is 207 to 210 °C.

Consider `CC(C)OC1=NNC(=O)C1=Cc1ccc[nH]1` [Example 11, 3-Isopropoxy-4-[(pyrrol-2-yl)methylene]-2-pyrazolin-5-one], for which the melting point was 172 to 174 °C.

On to `O=C1NN=C(CCc2ccccc2)C1=Cc1ccc[nH]1` [Example 12, 3-Phenylethyl-4-[(pyrrol-2-yl)methylene]-2-pyrazolin-5-one], for which the melting point lay in the range of 145 to 147 °C.

Turning to `O=C1NN=C(Nc2ccccc2)C1=Cc1ccc[nH]1` [Example 13, 3-Phenylamino-4-[(pyrrol-2-yl)methylene]-2-pyrazolin-5-one], the melting point was in the range of 285 to 287 °C.

Take `Cc1ccc(CC2=NNC(=O)C2=Cc2ccc[nH]2)cc1` [Example 14, 3-(4-Methylbenzyl)-4-[(pyrrol-2-yl)methylene]-2-pyrazolin-5-one]: the melting point is 254 to 255 °C.

`Cc1ccc(NC2=NNC(=O)C2=Cc2ccc[nH]2)cc1` [Example 15, 3-(4-Methylphenylamino)-4-[(pyrrol-2-yl)methylene]-2-pyrazolin-5-one] came in with a melting point of 256 to 258 °C.

Take `COc1ccc(NC2=NNC(=O)C2=Cc2ccc[nH]2)cc1` [Example 16, 3-(4-Methoxyphenylamino)-4-[(pyrrol-2-yl)methylene]-2-pyrazolin-5-one]: the melting point lay within 288 to 290 °C.

Regarding `O=C1NN=C(Cc2ccc(Cl)cc2)C1=Cc1ccc[nH]1` [Example 17, 3-(4-Chlorobenzyl)-4-[(pyrrol-2-yl)methylene]-2-pyrazolin-5-one], the melting point lay within 178 to 180 °C.

In turn, `O=C1NN=C(Nc2ccc(Cl)cc2)C1=Cc1ccc[nH]1` [Example 18, 3-(4-Chlorophenylamino)-4-[(pyrrol-2-yl)methylene]-2-pyrazolin-5-one] returned a melting point of 245 to 247 °C.

As to `O=C1NN=C(COc2cccc(Cl)c2)C1=Cc1ccc[nH]1` [Example 19, 3-(3-Chlorophenyloxymethyl)-4-[(pyrrol-2-yl)methylene]-2-pyrazolin-5-one], the melting point was in the range of 165 to 167 °C.

Molecule `O=C1NN=C(c2c[nH]c3ccccc23)C1=Cc1ccc[nH]1` [Example 20, 3-(Indol-3-yl)-4-[(pyrrol-2-yl)methylene]-2-pyrazolin-5-one] registered a melting point of 300 to 305 °C.

In turn, `COc1cccc(CC2=NNC(=O)C2=Cc2ccc[nH]2)c1` [Example 21, 3-(3-Methoxybenzyl)-4-[(pyrrol-2-yl)methylene]-2-pyrazolin-5-one] registered a melting point of 169 to 171 °C.

The molecule `COc1ccc(CC2=NNC(=O)C2=Cc2ccc[nH]2)cc1OC` [Example 22, 3-(3,4-Dimethoxybenzyl)-4-[(pyrrol-2-yl)methylene]-2-pyrazolin-5-one] displayed a melting point of 164 to 165 °C.

For the molecule `COc1ccc(CCC2=NNC(=O)C2=Cc2ccc[nH]2)cc1` [Example 23, 3-(4-Methoxyphenylethyl)-4-[(pyrrol-2-yl)methylene]-2-pyrazolin-5-one], the melting point lay within 137 to 139 °C.

Take `O=C1NN=C(COc2ccc(-c3ccccc3)cc2)C1=Cc1ccc[nH]1` [Example 24, 3-(4-Phenylphenyloxymethyl)-4-[(pyrrol-2-yl)methylene]-2-pyrazolin-5-one]: the melting point was 192 to 194 °C.

The molecule `CC(CC1=NNC(=O)C1=Cc1ccc[nH]1)c1ccccc1` (stereo not shown) [Example 25, 3-(2-Phenylpropyl)-4-[(pyrrol-2-yl)methylene]-2-pyrazolin-5-one] came in with a melting point of 130 to 131 °C.

The molecule `O=C1NN=C(CCCc2ccccc2)C1=Cc1ccc[nH]1` [Example 26, 3-(3-Phenylpropyl)-4-[(pyrrol-2-yl)methylene]-2-pyrazolin-5-one] came in with a melting point of 169 to 170 °C.

As for `O=C1NN=C(CCc2ccc(O)cc2)C1=Cc1ccc[nH]1` [Example 27, 3-(4-Hydroxyphenylethyl)-4-[(pyrrol-2-yl)methylene]-2-pyrazolin-5-one], the melting point is 253 to 255 °C.
